Assay results reported in patent EP0142333A2, “Glycerol derivatives” (ONO PHARMACEUTICAL CO., LTD., priority 1983, dated 1985).
Structures can show the parent of a compound that is named as a salt.

Assays:
mice = experiment: Acute toxicity by intravenous administration; format: in vivo; settings: intravenously administered to tail vein in mice at the dose of 50 mg/kg
[1] = system: PAF-induced platelet aggregation; experiment: Inhibitory effect on PAF-induced platelet aggregation (platelet rich plasma, Born aggregometer); format: cell-based; settings: Cavia porcellus; platelet rich plasma of male guinea-pig; PAF (10nM)-induced aggregation; absorbancy method
Procedure: (1) Inhibitory effect on PAF-induced platelet aggregation
Whole blood of male guinea-pig was collected with a 3.8%. aqueous solution of trisodium citrate in a proportion of 9:1 (v/v) and the mixture was centrifuged for 10 minutes at room temperature (120 x g) to obtain platelet rich plasma. Using obtained plasma, PAF (10nM)-induced aggregation was determined by the absorbancy method using an aggregometer of Born (cf. J. Physiol., 162, 67 (1962)) .
The evaluation is conducted using the concentration of compounds of the present invention required to produce a 50% inhibition of each effect, i.e. IC50.

Row | SMILES | mortality (dead/used) (mice) | IC50 [1] [µM]
1 | CCCCCCCCCCCCCCCCOCC(COCCCCCCC[N+](C)(C)C)OCC (racemic) [5(a), (2RS)-1-0-hexadecyl-2-0-ethyl-3-0-[7-(trimethylammonio)heptyl]glycerol·methanesulfonic acid salt] | 0/5 | –
2 | CCCCCCCCCCCCCCCCOCC(COCCCCCCC[N+](C)(C)C)OCCC (racemic) [5(b), (2RS)-1-0-hexadecyl-2-0-n-propyl-3-0-(7-(trimethylammonio)heptyl]glycerol·methanesulfonic acid salt] | 0/5 | 1.8
3 | CCCCCCCCCCCCCCCCOCC(COCCCC[N+](C)(C)C)C(C)C (racemic) [Example 2(b), (2RS)-l-0-hexadecyl-2-dehydroxy-2-iso-propyl-3-0-[4-(trimethylammonio)butyl]glycerol·iodide] | 2/5 | –
4 | CCCCCCCCCCCCCCCCOCC(CCC)COCCCC[N+](C)(C)C (racemic) [Example 2, (2RS)-1-0-hexadecyl-2-dehydroxy-2-n-propyl-3-0-[4-(trimethylammonio)butyl]glycerol·iodide] | – | 5.3
5 | CCCCCCCCCCCCCCCCOCC(COCCCCCCC[N+](C)(C)C)OC (racemic) [Example 5, (2RS)-1-0-hexcadecyl-2-0-methyl-3-0-[7-(trimethylammonio)heptyl] glycerol·methanesulfonic acid salt] | 0/5 | 1.3
6 | C=CCOC(COCCCCCCCCCCCCCCCC)COCCCC[N+](C)(C)C (racemic) [Example 7, (2RS)-1-0-hexadecyl-2-0-allyl-3-0-[4-(trimethylammonio)butyl] glycerol·iodide] | – | 3.8
